Measured values reported in ChEMBL document CHEMBL1201862, “PubChem BioAssay data set” (2004).
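Results reflect a 48-hour exposure of cells in 96-well plates to compound at five concentrations. The concentration for 50% growth inhibition is given as GI50.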 Active and inactive are the calls of the source. No stated cut-off is given here; in the data, active = GI50 up to about 1.1 µM and inactive = higher.

Columns and labels:
Experiment in all cases: NCI tumour cell line growth inhibition, 48 h
[1] = tested on: RXF 393
[2] = tested on: A549
[3] = tested on: 786-0
[4] = tested on: HCC 2998
[5] = tested on: NCI-H226
[6] = tested on: MOLT-4
[7] = tested on: M14
[8] = tested on: OVCAR-3
[9] = tested on: HOP-92
[10] = tested on: SNB-75
[11] = tested on: SW-620
[12] = tested on: SK-MEL-28
[13] = tested on: UACC-257
[14] = tested on: UO-31
[15] = tested on: MDA-MB-231
[16] = tested on: OVCAR-8
[17] = tested on: HCT-15
[18] = tested on: SF-268
[19] = tested on: HL-60

SMILES	GI50 [1]	GI50 [2]	GI50 [3]	GI50 [4]	GI50 [5]	GI50 [6]	GI50 [7]	GI50 [8]	GI50 [9]	GI50 [10]	GI50 [11]	GI50 [12]	GI50 [13]	GI50 [14]	GI50 [15]	GI50 [16]	GI50 [17]	GI50 [18]	GI50 [19]
CC(=O)OCc1ccc2oc(=O)c(C(=O)Oc3cccc(Cl)c3)cc2c1	33.7 µM (inactive)	> 100 µM (inactive)	36.1 µM (inactive)	19.4 µM (inactive)	> 100 µM (inactive)	90.2 µM (inactive)	34.6 µM (inactive)	> 100 µM (inactive)	20.6 µM (inactive)	37.8 µM (inactive)	56.4 µM (inactive)	83 µM (inactive)	62.7 µM (inactive)	22.1 µM (inactive)	32.4 µM (inactive)	> 100 µM (inactive)	35.5 µM	> 100 µM (inactive)	–
CC(C)CCC[C@@H](C)[C@H]1CC[C@H]2[C@@H]3CC=C4C[C@@H](OC(=O)c5cccc6c(=O)c7ccccc7[nH]c56)CC[C@]4(C)[C@H]3CC[C@]12C	> 75 µM (inactive)	> 75 µM (inactive)	> 75 µM (inactive)	> 75 µM (inactive)	> 75 µM (inactive)	> 75 µM (inactive)	> 75 µM (inactive)	> 75 µM (inactive)	> 75 µM (inactive)	> 75 µM (inactive)	> 75 µM (inactive)	> 75 µM (inactive)	> 75 µM (inactive)	> 75 µM (inactive)	3.91 µM (inactive)	> 75 µM (inactive)	> 75 µM	> 75 µM (inactive)	–
COC(=O)CCCc1ccc2c(c1)CCC2	–	> 100 µM (inactive)	> 100 µM (inactive)	> 100 µM (inactive)	> 100 µM (inactive)	> 100 µM (inactive)	> 100 µM (inactive)	> 100 µM (inactive)	> 100 µM (inactive)	> 100 µM (inactive)	> 100 µM (inactive)	> 100 µM (inactive)	> 100 µM (inactive)	> 100 µM (inactive)	> 100 µM (inactive)	> 100 µM (inactive)	> 100 µM	> 100 µM (inactive)	> 100 µM (inactive)
C[C@@]12C=CC3C/C(=N\C(N)=S)C=C(CCCC4OCCO4)[C@]3(CC1)C2 (stereo partly specified)	16 µM (inactive)	21.1 µM (inactive)	19.3 µM (inactive)	15.1 µM (inactive)	23.3 µM (inactive)	9.44 µM (inactive)	17.2 µM (inactive)	15.2 µM (inactive)	34.4 µM (inactive)	28.6 µM (inactive)	20.8 µM (inactive)	18 µM (inactive)	18.8 µM (inactive)	17.6 µM (inactive)	20.3 µM (inactive)	21.8 µM (inactive)	17.7 µM	29.4 µM (inactive)	–
CCOC(=O)/C(C(=O)Nc1ccc(F)cc1)=C(/N)N1CCOCC1	> 100 µM (inactive)	> 100 µM (inactive)	> 100 µM (inactive)	> 100 µM (inactive)	> 100 µM (inactive)	> 100 µM (inactive)	> 100 µM (inactive)	> 100 µM (inactive)	–	> 100 µM (inactive)	> 100 µM (inactive)	> 100 µM (inactive)	> 100 µM (inactive)	–	> 100 µM (inactive)	> 100 µM (inactive)	> 100 µM	> 100 µM (inactive)	> 100 µM (inactive)
CCCCC(C)(C/C=C/[C@@H]1[C@@H](C(O)CCCCCC(=O)OC)C(=O)C[C@H]1O[Si](C)(C)C(C)(C)C)O[Si](C)(C)C (stereo partly specified)	54.2 µM (inactive)	70.8 µM (inactive)	> 100 µM (inactive)	> 100 µM (inactive)	> 100 µM (inactive)	19.7 µM (inactive)	> 100 µM (inactive)	91 µM (inactive)	> 100 µM (inactive)	56.2 µM (inactive)	59.3 µM (inactive)	77.4 µM (inactive)	62.1 µM (inactive)	33.7 µM (inactive)	> 100 µM (inactive)	> 100 µM (inactive)	76.2 µM	39.1 µM (inactive)	–
N[C@H](CCC(=O)NCP(=O)(O)O)C(=O)O	–	> 100 µM (inactive)	> 100 µM (inactive)	> 100 µM (inactive)	–	> 100 µM (inactive)	–	> 100 µM (inactive)	–	–	> 100 µM (inactive)	> 100 µM (inactive)	> 100 µM (inactive)	> 100 µM (inactive)	> 100 µM (inactive)	> 100 µM (inactive)	> 100 µM	–	> 100 µM (inactive)
CCSCCCSCCSCC	–	> 100 µM (inactive)	> 100 µM (inactive)	> 100 µM (inactive)	–	17.2 µM (inactive)	> 100 µM (inactive)	> 100 µM (inactive)	–	> 100 µM (inactive)	> 100 µM (inactive)	> 100 µM (inactive)	> 100 µM (inactive)	> 100 µM (inactive)	> 100 µM (inactive)	> 100 µM (inactive)	> 100 µM	> 100 µM (inactive)	26.4 µM (inactive)
COc1ccc2sc(-n3nc4ccccc4c3Nc3nc4ccc(OC)cc4s3)nc2c1	11 µM (inactive)	3.77 µM (inactive)	1.64 µM (inactive)	1.43 µM (inactive)	2.9 µM (inactive)	–	7.24 µM (inactive)	1.79 µM (inactive)	3.12 µM (inactive)	3 µM (inactive)	7.5 µM (inactive)	7.67 µM (inactive)	4.1 µM (inactive)	7.16 µM (inactive)	2.07 µM (inactive)	1.29 µM (inactive)	10.5 µM	5.01 µM (inactive)	–
CN(C)CCNC(=O)c1cccc(C(=O)Nc2ccccc2)c1[N+](=O)[O-]	–	> 100 µM (inactive)	> 100 µM (inactive)	> 100 µM (inactive)	> 100 µM (inactive)	> 100 µM (inactive)	> 100 µM (inactive)	> 100 µM (inactive)	–	34.8 µM (inactive)	> 100 µM (inactive)	> 100 µM (inactive)	> 100 µM (inactive)	> 100 µM (inactive)	> 100 µM (inactive)	> 100 µM (inactive)	> 100 µM	> 100 µM (inactive)	> 100 µM (inactive)
CC1=CC(=O)N(n2c(Cc3ccccc3)n[nH]c2=O)C1=O	> 100 µM (inactive)	> 100 µM (inactive)	> 100 µM (inactive)	> 100 µM (inactive)	> 100 µM (inactive)	33.9 µM (inactive)	> 100 µM (inactive)	> 100 µM (inactive)	> 100 µM (inactive)	–	83.9 µM (inactive)	–	> 100 µM (inactive)	> 100 µM (inactive)	> 100 µM (inactive)	> 100 µM (inactive)	> 100 µM	> 100 µM (inactive)	–
Cc1n[nH]c(=O)n1/N=C/c1c[nH]c2ccccc12	20.9 µM (inactive)	> 100 µM (inactive)	> 100 µM (inactive)	> 100 µM (inactive)	–	> 100 µM (inactive)	> 100 µM (inactive)	> 100 µM (inactive)	> 100 µM (inactive)	32.9 µM (inactive)	> 100 µM (inactive)	> 100 µM (inactive)	> 100 µM (inactive)	> 100 µM (inactive)	> 100 µM (inactive)	> 100 µM (inactive)	> 100 µM	> 100 µM (inactive)	–
Cc1ccc(/N=N/C(=N/c2ccccc2)c2ccc(N(CCC#N)CCC#N)cc2)cc1	22.3 µM (inactive)	26.7 µM (inactive)	37.8 µM (inactive)	19.4 µM (inactive)	27.7 µM (inactive)	43.7 µM (inactive)	33.4 µM (inactive)	20.1 µM (inactive)	22 µM (inactive)	31.1 µM (inactive)	45.6 µM (inactive)	39.8 µM (inactive)	19.3 µM (inactive)	60.3 µM (inactive)	22.1 µM (inactive)	26.1 µM (inactive)	44.8 µM	40.3 µM (inactive)	–
CC[n+]1[b-](C(C)(C)C)n(/N=C/C(C)(C)C)[b-](C(C)(C)C)[n+]1CC	> 100 µM (inactive)	> 100 µM (inactive)	> 100 µM (inactive)	> 100 µM (inactive)	> 100 µM (inactive)	> 100 µM (inactive)	> 100 µM (inactive)	> 100 µM (inactive)	–	> 100 µM (inactive)	> 100 µM (inactive)	> 100 µM (inactive)	> 100 µM (inactive)	> 100 µM (inactive)	> 100 µM (inactive)	> 100 µM (inactive)	> 100 µM	> 100 µM (inactive)	–
COC(=O)Nc1cc(OCCCOC(C)=O)c2[nH]c(C(=O)OC)cc2c1C[C@H](O)CO	–	> 100 µM (inactive)	> 100 µM (inactive)	> 100 µM (inactive)	> 100 µM (inactive)	> 100 µM (inactive)	> 100 µM (inactive)	> 100 µM (inactive)	11.1 µM (inactive)	–	> 100 µM (inactive)	> 100 µM (inactive)	> 100 µM (inactive)	> 100 µM (inactive)	> 100 µM (inactive)	> 100 µM (inactive)	> 100 µM	–	> 100 µM (inactive)
COc1cc(/C=C2/C[C@H]3[C@@H]4CC=C5C[C@@H](OC(C)=O)CC[C@]5(C)[C@H]4CC[C@]3(C)NC2=O)cc(OC)c1OC	17.3 µM (inactive)	18 µM (inactive)	17.9 µM (inactive)	43.4 µM (inactive)	–	16.9 µM (inactive)	36.5 µM (inactive)	31.3 µM (inactive)	24.6 µM (inactive)	22.5 µM (inactive)	54 µM (inactive)	26.2 µM (inactive)	26.5 µM (inactive)	18.1 µM (inactive)	22 µM (inactive)	27.8 µM (inactive)	32.7 µM	24 µM (inactive)	–
